Assay results from ChEMBL document CHEMBL1201862, “PubChem BioAssay data set” (2004).
Several values for one entry are separate records, joined by “and”; a condition that tells them apart may be missing. Equal entries are not always repeated.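 Grown in 96-well plates, cells were treated for 48 hours with each compound at five concentrations. Insufficient inhibition: endpoint recorded as highest concentration tested. GI50: concentration for 50% inhibition of growth.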 Activity calls are given as the source filed them. Cut-off read from the data, not from the text of the source: active = GI50 up to about 1.1 µM and inactive = higher.

Assays:
Assay in all cases: growth of human tumour cells (NCI), 48 h
CCRF-CEM = test system: CCRF-CEM
SNB-75 = test system: SNB-75
RXF 393 = test system: RXF 393
TK-10 = test system: TK-10
OVCAR-8 = test system: OVCAR-8
HCC 2998 = test system: HCC 2998
786-0 = test system: 786-0
DU-145 = test system: DU-145
SW-620 = test system: SW-620
SK-MEL-2 = test system: SK-MEL-2
HCT-15 = test system: HCT-15
LOX IMVI = test system: LOX IMVI
SN12C = test system: SN12C
HT-29 = test system: HT-29
RPMI-8226 = test system: RPMI-8226
MCF7 = test system: MCF7
HOP-62 = test system: HOP-62
CAKI-1 = test system: CAKI-1
MOLT-4 = test system: MOLT-4
NCI-H522 = test system: NCI-H522
KM12 = test system: KM12
NCI-H23 = test system: NCI-H23
SF-268 = test system: SF-268
A549 = test system: A549
ACHN = test system: ACHN
HCT-116 = test system: HCT-116
Hs-578T = test system: Hs-578T
NCI-H226 = test system: NCI-H226
PC-3 = test system: PC-3
K562 = test system: K562
UACC-257 = test system: UACC-257
IGROV-1 = test system: IGROV-1
M14 = test system: M14
T47D = test system: T47D
HOP-92 = test system: HOP-92
U-251 = test system: U-251
BT-549 = test system: BT-549
NCI/ADR-RES = test system: NCI/ADR-RES
SK-MEL-28 = test system: SK-MEL-28
HL-60 = test system: HL-60
EKVX = test system: EKVX
SF-295 = test system: SF-295
SK-MEL-5 = test system: SK-MEL-5
MDA-MB-435 = test system: MDA-MB-435
MDA-MB-231 = test system: MDA-MB-231
UACC-62 = test system: UACC-62
UO-31 = test system: UO-31
SF-539 = test system: SF-539
SNB-19 = test system: SNB-19
OVCAR-3 = test system: OVCAR-3
OVCAR-5 = test system: OVCAR-5
A498 = test system: A498
OVCAR-4 = test system: OVCAR-4
COLO 205 = test system: COLO 205
SK-OV-3 = test system: SK-OV-3
Malme-3M = test system: Malme-3M
SR = test system: SR
NCI-H460 = test system: NCI-H460

Measured: GI50

CC1=NN(c2nc(N)nc(CO)n2)C(C)(C)C1
> 100 µM: HCT-15
inactive: CCRF-CEM > 100 µM | SNB-75 > 100 µM | RXF 393 > 100 µM | TK-10 > 100 µM | OVCAR-8 > 100 µM | HCC 2998 > 100 µM | 786-0 > 100 µM | DU-145 > 100 µM | SW-620 > 100 µM | SK-MEL-2 > 100 µM | LOX IMVI > 100 µM | SN12C > 100 µM | HT-29 > 100 µM | RPMI-8226 > 100 µM | MCF7 > 100 µM | HOP-62 > 100 µM | CAKI-1 > 100 µM | MOLT-4 > 100 µM | NCI-H522 > 100 µM | KM12 > 100 µM | NCI-H23 > 100 µM | SF-268 > 100 µM | A549 > 100 µM | ACHN > 100 µM | HCT-116 > 100 µM | Hs-578T > 100 µM | NCI-H226 > 100 µM | PC-3 > 100 µM | K562 > 100 µM | UACC-257 > 100 µM | IGROV-1 > 100 µM | M14 > 100 µM | T47D > 100 µM | HOP-92 > 100 µM | U-251 > 100 µM | BT-549 > 100 µM | NCI/ADR-RES > 100 µM | SK-MEL-28 > 100 µM | HL-60 > 100 µM | EKVX > 100 µM | SF-295 > 100 µM | SK-MEL-5 > 100 µM | MDA-MB-435 > 100 µM | MDA-MB-231 > 100 µM | UACC-62 > 100 µM | UO-31 > 100 µM | SF-539 > 100 µM | SNB-19 > 100 µM | OVCAR-3 > 100 µM | OVCAR-5 > 100 µM | A498 > 100 µM | OVCAR-4 > 100 µM | COLO 205 > 100 µM | SK-OV-3 > 100 µM

c1ccc(P(CCP(CCP(c2ccccc2)c2ccccc2)c2ccccc2)CCP(c2ccccc2)c2ccccc2)cc1 (centres undefined)
9.77 µM: HCT-15
inactive: CCRF-CEM 1.23 µM | RXF 393 > 5.6 µM | TK-10 > 10 µM | HCC 2998 2.06 µM | Malme-3M > 10 µM | 786-0 1.82 µM | DU-145 > 9.16 µM | SW-620 5.05 µM | SK-MEL-2 9.44 µM | LOX IMVI 1.51 µM | RPMI-8226 1.68 µM | MCF7 1.67 µM | HOP-62 > 10 µM | MOLT-4 1.41 µM | NCI-H522 2.69 µM | NCI-H460 1.72 µM | NCI-H23 > 5.38 µM | Hs-578T 3.85 µM | NCI-H226 > 5.22 µM | K562 1.28 µM | UACC-257 > 10 µM | T47D 2.12 µM | BT-549 > 10 µM | NCI/ADR-RES > 10 µM and > 5.58 µM | UACC-62 6.55 µM | UO-31 > 10 µM and > 6.82 µM | SF-539 > 6.25 µM | OVCAR-5 > 5.45 µM | A498 > 10 µM and > 8.65 µM | OVCAR-4 7.33 µM | SK-OV-3 > 10 µM
active: SR 1.1 µM | HL-60 0.63 µM
